Data on 5 compounds can be found in ChEMBL document CHEMBL1137606, “Synthesis of novel phytosphingosine derivatives and their preliminary biological evaluation for enhancing radiation therapy” (2007).

SMILES strings stand for the structures. Calls of active or inactive are those of the source. The calls are words filed in the database; no cut-off is given here.

One test deals with Jurkat. The test can be described thus: Cytotoxicity against human Jurkat cells at 10 uM after 30 mins. In kind it is functional, cell-based.
`CCCCCCCCCCCCCC[C@@H](O)[C@@H](O)[C@@H](N)CO`: the result was Active.
Consider `CCCCCCCCCCCCCC[C@@H](O)[C@@H](O)[C@H](CO)NC(=O)CCCCCCCCC(=O)OC`, for which the result was Active.

A further test deals with Jurkat. The test can be described thus: Cytotoxicity against gamma irradiated human Jurkat cells at 10 uM after 30 mins relative to control. In kind it is functional.
Regarding `CCCCCCCCCCCCCC[C@@H](O)[C@@H](O)[C@H](CO)NC(=O)CCCC(=O)OCC`, the Activity is 19%.
In turn, `CCCCCCCCCCCCCC[C@@H](O)[C@@H](O)[C@H](CO)NC(=O)CCC(=O)OCC` had an Activity of 12%.
With `CCCCCCCCCCCCCC[C@@H](O)[C@@H](O)[C@@H](N)CO`, the outcome was inactive.
In turn, `CCCCCCCCCCCCCC[C@@H](O)[C@@H](O)[C@H](CO)NC(=O)COCc1ccccc1` had an Activity of 11%.
The same measure, in the same setting: next, `CCCCCCCCCCCCCC[C@@H](O)[C@@H](O)[C@H](CO)NC(=O)CCCCCCCCC(=O)OC`: “inactive”.
